In publication PMC9784833, “Mangosteen Metabolites as Promising Alpha-Amylase Inhibitor Candidates: In Silico and In Vitro Evaluations” (Metabolites, 2022) one finds IC50 data, which are given here for 18 molecules.

pIC50: −log10 of the molar value.

This test has as its target T1, alpha-amylase (Homo sapiens, UniProt P04746).
T1 sequence (P04746 16-511): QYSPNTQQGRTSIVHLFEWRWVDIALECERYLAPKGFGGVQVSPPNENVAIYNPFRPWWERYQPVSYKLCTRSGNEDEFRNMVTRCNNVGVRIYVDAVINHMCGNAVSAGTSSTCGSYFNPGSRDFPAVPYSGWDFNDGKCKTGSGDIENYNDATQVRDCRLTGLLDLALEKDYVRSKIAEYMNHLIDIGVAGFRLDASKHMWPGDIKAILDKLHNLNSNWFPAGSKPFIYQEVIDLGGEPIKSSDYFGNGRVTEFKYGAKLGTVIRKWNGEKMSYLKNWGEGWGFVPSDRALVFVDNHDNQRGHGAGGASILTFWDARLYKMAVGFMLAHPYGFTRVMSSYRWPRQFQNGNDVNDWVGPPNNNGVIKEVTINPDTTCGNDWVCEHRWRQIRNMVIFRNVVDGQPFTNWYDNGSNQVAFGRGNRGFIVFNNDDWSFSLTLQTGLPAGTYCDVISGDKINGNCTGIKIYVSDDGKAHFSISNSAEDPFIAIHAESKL
The test can be described thus: In vitro alpha-amylase inhibition assay (EnzChek Ultra-Amylase-Assay Kit).
Consider `O=C(c1cccc(O)c1)c1c(O)cc(O)cc1O[C@@H]1O[C@H](CO)[C@@H](O)[C@H](O)[C@H]1O` [Compound 3, 2,4,3’-Trihydroxy benzophenone-6-O-β-D-glucopyranoside], for which the pIC50 (usually −log10 of the IC50, conventionally taken in molar units) is 4.80.
In turn, `O=C(c1ccc(O)c(O)c1)c1c(O)cc(O)cc1O[C@@H]1O[C@H](CO)[C@@H](O)[C@H](O)[C@H]1O` [Compound 4, Rhodanthenone] gave a pIC50 of 4.98.
To `O=C1c2c(O)cc(O)c([C@@H]3O[C@H](CO)[C@@H](O)[C@H](O)[C@H]3O)c2O[C@H](c2ccc(O)cc2)[C@H]1O` [Compound 5, Aromadendrin-8-C-glucoside] belongs 5.08; to `Oc1cc(O)c2c(c1)O[C@H](c1ccc(O)c(O)c1)[C@H](O)C2` [Compound 6, Epicatechin], 5.05.
To `O=C(c1cc(O)c(O)cc1O)c1c(O)cc(O)cc1OC1OC(CO)C(O)C(O)C1O` [Compound 8, 6-O-β-D-Glucopyranosyl-2,4,6,3′,4′,6′-hexahydroxybenzophenone] belongs 5.15; to `COc1ccc(C2Oc3c(c(O)cc(O)c3C3OC(CO)C(O)C(O)C3O)C(=O)C2O)cc1` [Compound 9, 2R,3R-5,7-Dihydroxy-8-C-β-D-glucopyranosyl-4-methoxy-2,3-dihydroflavon-3-ol], 4.89.
The result for `COc1c(O)cc2oc3c(CC=C(C)CCC=C(C)C)c(O)cc(O)c3c(=O)c2c1CC=C(C)CCC=C(C)C` [Compound 10, Mangostanaxanthone I] reads 4.55; that for `COc1c(O)cc2oc3cc(O)c(CC=C(C)C)c(O)c3c(=O)c2c1CC=C(C)C` [Compound 13, α-Mangostin], 4.36.
As to `CC(C)=CCc1c(O)cc2oc3c(CC=C(C)C)c(O)c(O)c(CC=C(C)C)c3c(=O)c2c1O` [Compound 15, Garcinone E], the pIC50 was 4.73.
The result for `CC(C)=CCc1c(O)c(CC=C(C)C)c2oc3c(O)ccc(O)c3c(=O)c2c1O` [Compound 17, Gartanin] reads 4.67.
The result for `CC(C)=CCc1c(O)cc2oc3c(CC=C(C)C)c(O)c4c(c3c(=O)c2c1O)C=CC(C)(C)O4` [Compound 23, Tovophyllin A] reads 4.69; that for `COc1c(O)cc2oc3cc(O)c(/C=C\C(C)(C)O)c(O)c3c(=O)c2c1CC=C(C)C` [Compound 28, Mangostanaxanthone IV], 4.33.
Consider `CC(C)=CCc1c(O)c(O)c(/C=C\C(C)(C)O)c2c(=O)c3c(O)c(/C=C\C(C)(C)O)c(O)cc3oc12` [Compound 29, Mangostanaxanthone V], for which the pIC50 is 4.92.
Molecule `CC(C)=CCc1c(O)cc2oc3c(/C=C\C(C)(C)O)c(O)c(O)c(CC=C(C)C)c3c(=O)c2c1O` [Compound 30, Mangostanaxanthone VI] showed a pIC50 of 4.66.
The result for `CC(C)=CCc1c(O)cc2oc3cc(O)c(O)c(/C=C\C(C)(C)O)c3c(=O)c2c1O` [Compound 31, Mangostanaxanthone VII] reads 4.71.
To `COc1cc2oc3cc(O)c(OC)c(CC=C(C)C)c3c(=O)c2c(O)c1/C=C\C(C)(C)O` [Compound 35, Mangostanaxanthone VIII] belongs 4.39; to `CC(C)=CCc1c(O)c(C(=O)CC(C)(C)O)c2oc3c(O)ccc(O)c3c(=O)c2c1O` [Compound 39, Garcixanthone C], 4.77; to `CC(C)=CCc1c(O)cc2oc3c(O)c(O)c(O)c(CC=C(C)C)c3c(=O)c2c1O` [Compound 40, Garcixanthone D], 4.95.
